# Reference: PubChem BioAssay (NCI)
#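 How tested: cells in 96-well plates exposed to compound for 48 hours at five concentrations. GI50: concentration for 50% inhibition of growth. The concentration for full growth arrest is given as TGI.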
# Assays:
# Experiment in all cases: NCI anticancer screen, dose series, 48 h
# DU-145 prostate = system: DU-145 prostate
# T-47D breast = system: T-47D breast
# UACC-257 melanoma = system: UACC-257 melanoma
# SNB-75 CNS = system: SNB-75 CNS
# UO-31 renal = system: UO-31 renal
# IGROV1 ovarian = system: IGROV1 ovarian
# SF-539 CNS = system: SF-539 CNS
# SW-620 colon = system: SW-620 colon
# NCI-H522 lung = system: NCI-H522 lung
# NCI-H460 lung = system: NCI-H460 lung
Structure (SMILES),GI50 (DU-145 prostate),TGI (DU-145 prostate),GI50 (T-47D breast),TGI (T-47D breast),GI50 (UACC-257 melanoma),TGI (UACC-257 melanoma),GI50 (SNB-75 CNS),TGI (SNB-75 CNS),GI50 (UO-31 renal),TGI (UO-31 renal),GI50 (IGROV1 ovarian),TGI (IGROV1 ovarian),GI50 (SF-539 CNS),TGI (SF-539 CNS),GI50 (SW-620 colon),TGI (SW-620 colon),TGI (NCI-H522 lung),TGI (NCI-H460 lung),GI50 (NCI-H522 lung),GI50 (NCI-H460 lung)
COc1cc(-c2n/c(=C\c3c(O)[nH]c4ccc(Cl)cc34)cc3c2=Nc2ccccc2-3)ccc1F,2.18 µM,4.8 µM,1.5 µM,3.5 µM,3.43 µM,10.9 µM,1.69 µM,4.6 µM,1.12 µM,2.5 µM,2.07 µM,5.17 µM,2.79 µM,9.87 µM,1.33 µM,2.94 µM,–,–,–,–
Cc1cc2c(O)c(c1)CN(CC(=O)O)Cc1cc(C)cc(c1O)CN(CC(=O)O)Cc1cc(C)cc(c1O)CN(CC(=O)O)C2,–,> 100 µM,–,> 100 µM,–,> 100 µM,–,> 100 µM,–,> 100 µM,–,–,–,> 100 µM,–,> 100 µM,> 100 µM,> 100 µM,–,–
O=C(c1ccncc1)n1nc(-c2ccccc2)c(N=Nc2ccccc2[N+](=O)[O-])c1-c1ccccc1,–,–,–,–,–,> 100 µM,–,> 100 µM,–,79.9 µM,–,> 100 µM,–,> 100 µM,–,> 100 µM,> 100 µM,–,–,–
CCC1=C(C(C)=O)[C@@H]2CCCCC[C@@H](C(=O)OC)C2C1=O (stereo not given in full),–,–,–,–,–,> 100 µM,–,> 100 µM,–,> 100 µM,–,> 100 µM,–,> 100 µM,–,> 100 µM,> 100 µM,> 100 µM,–,–
CN(C)/N=C(/c1nc2ccc(Cl)cc2[nH]c1=O)C(O)c1ccc(C(O)/C(=N\N(C)C)c2nc3ccc(Cl)cc3[nH]c2=O)cc1 (stereo not given),–,–,–,–,–,> 100 µM,–,–,–,> 100 µM,–,> 100 µM,–,> 100 µM,–,> 100 µM,> 100 µM,> 100 µM,–,–
CCC(O)(Cc1ccc(OC)cc1)c1ccc(OC)cc1 (stereo not given),–,> 100 µM,–,–,–,> 100 µM,–,> 100 µM,–,> 100 µM,–,> 100 µM,–,> 100 µM,–,> 100 µM,> 100 µM,> 100 µM,–,–
O=S(=O)(O)c1ccc(N=Nc2ccc(N=Nc3ccc(/C=C/c4ccc(N=[N+]([O-])c5ccc(/C=C/c6ccc(N=Nc7ccc(N=Nc8ccc(S(=O)(=O)O)cc8)cc7)cc6S(=O)(=O)O)c(S(=O)(=O)O)c5)cc4S(=O)(=O)O)c(S(=O)(=O)O)c3)cc2)cc1,–,–,–,–,–,> 100 µM,–,> 100 µM,–,> 100 µM,–,> 100 µM,–,> 100 µM,–,> 100 µM,> 100 µM,> 100 µM,–,–
C[C@]12CCC(=O)[C@@H](CCC3=CC(=O)C=CC3=O)[C@@H]1CCC2=O,–,40.8 µM,–,> 81.7 µM,–,39 µM,–,25.8 µM,–,31.1 µM,–,–,–,35.7 µM,–,> 58.7 µM,5.64 µM,31.4 µM,–,–
N#C/C(C(=O)Nc1ccc(Cl)cc1)=C(/N)N1CCCC1,–,> 100 µM,–,> 100 µM,–,> 100 µM,–,> 100 µM,–,> 100 µM,–,> 100 µM,–,> 100 µM,–,> 100 µM,–,> 100 µM,–,–
N#CC1(O)CCCCCCCCCCC1,–,> 100 µM,–,> 100 µM,–,> 100 µM,–,–,–,> 100 µM,–,> 100 µM,–,> 100 µM,–,> 100 µM,> 100 µM,> 100 µM,–,–
O=c1c(Cc2ccc(Cl)cc2)nnc2sc(-c3ccc(-c4ccc(F)c(Cl)c4)o3)nn12,–,> 100 µM,–,> 100 µM,–,> 100 µM,–,–,–,> 100 µM,–,> 100 µM,–,> 100 µM,–,> 100 µM,> 100 µM,> 100 µM,–,–
COc1ccccc1CN=C1Nc2ccncc2S(=O)(=O)N1c1ccccc1,–,> 100 µM,–,–,–,> 100 µM,–,–,–,> 100 µM,–,> 100 µM,–,–,–,> 100 µM,> 100 µM,> 100 µM,–,–
O=P(O)(O)c1ccccc1Oc1ccccc1,–,> 100 µM,–,–,–,> 100 µM,–,> 100 µM,–,> 100 µM,–,> 100 µM,–,> 100 µM,–,> 100 µM,> 100 µM,> 100 µM,–,–
CCOC(=O)c1s/c(=N\Nc2nc3ccccc3cc2C2OCCO2)n(Cc2ccccc2)c1C,–,–,–,–,–,> 100 µM,–,> 100 µM,–,> 100 µM,–,> 100 µM,–,> 100 µM,–,> 100 µM,> 100 µM,> 100 µM,–,–
CC(C)C(CC(=O)OCC(CO)OC(=O)CC(C(C)C)C(C)C)C(C)C (stereo not given),–,28.7 µM,–,31.7 µM,–,31.2 µM,–,21.8 µM,–,30.1 µM,–,33.2 µM,–,–,–,26.8 µM,25.6 µM,26.8 µM,–,–
Cc1ccc(C(=O)N/N=C(\N=Nc2ccccc2)c2ccc(N(C)C)cc2)cc1,–,> 100 µM,–,–,–,> 100 µM,–,–,–,> 100 µM,–,> 100 µM,–,> 100 µM,–,> 100 µM,> 100 µM,> 100 µM,–,–
COC(=O)C1CCc2sc3ncnc(Nc4cn[nH]c4C(=O)Nc4ccc(CN5CCN(C)CC5)cc4)c3c21 (stereo not given),–,–,0.957 µM,11.6 µM,1.19 µM,2.8 µM,0.0684 µM,2.87 µM,0.455 µM,9.51 µM,0.447 µM,> 100 µM,0.371 µM,1.49 µM,0.354 µM,1.58 µM,1.63 µM,1.49 µM,0.304 µM,0.331 µM
Cn1c(=O)c(-c2ccccc2)c(O)c2ccccc21,–,> 100 µM,–,–,–,> 100 µM,–,> 100 µM,–,> 100 µM,–,> 100 µM,–,> 100 µM,–,> 100 µM,> 100 µM,> 100 µM,–,–
O=C1N=C2SC(=S)NC(=S)N2NC12c1ccccc1-c1ccccc12,–,> 10 µM,–,> 10 µM,–,> 10 µM,–,> 10 µM,–,> 10 µM,–,> 10 µM,–,> 10 µM,–,> 10 µM,–,> 10 µM,–,–
CN(C)CC1CCC/C(=C\c2ccc(OC(=O)c3ccc(Cl)cc3)cc2)C1=O (stereo not given),–,6.79 µM,–,2.21 µM,–,16.7 µM,–,9.16 µM,–,2.97 µM,–,8.27 µM,–,5.41 µM,–,2.71 µM,–,17.5 µM,–,–
COC(=O)C1C(C(=O)OC)C2(OC(c3ccc(Cl)cc3)=CC2=O)C12OC(c1ccc(Cl)cc1)=CC2=O (stereo not given),–,> 100 µM,–,63.3 µM,–,48.8 µM,–,–,–,33.6 µM,–,47.7 µM,–,39.2 µM,–,> 100 µM,36.1 µM,41.5 µM,–,–
